In PubChem BioAssay AID248 (DTP/NCI, 2004) one finds T/C data, which are given here for 20 molecules.

The test system of this assay is L1210 leukemia ip in BDF1 mice, survival T/C. Description: NCI In Vivo Anticancer Drug Screen. Data for tumor model L1210 Leukemia (intraperitoneal) in B6D2F1 (BDF1) mice. The note with it: endpoint: mean survival time, higher = longer survival. The gist of the method:
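Each compound was tested against a transplantable tumor grown in mice. The endpoint was survival, with treated animals benchmarked against vehicle controls as a simple ratio.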

Where [1] appears, read: dose: 100.0 mg/kg/injection, schedule: Q04DX003 (ip), vehicle: saline with Tween-80.
[2] abbreviates: dose: 100.0 mg/kg/injection, schedule: Q01DX009 (ip), vehicle: Klucel (hydroxypropylcellulose) (HPC).
Setting [3] is: dose: 200.0 mg/kg/injection, schedule: Q01DX009 (ip), vehicle: Klucel (hydroxypropylcellulose) (HPC).
[4] abbreviates: dose: 100.0 mg/kg/injection, schedule: Q04DX003 (ip), vehicle: Klucel (hydroxypropylcellulose) (HPC).
Setting [5] is: dose: 200.0 mg/kg/injection, schedule: Q04DX003 (ip), vehicle: Klucel (hydroxypropylcellulose) (HPC).
Where [6] appears, read: dose: 400.0 mg/kg/injection, schedule: Q04DX003 (ip), vehicle: Klucel (hydroxypropylcellulose) (HPC).
[7] abbreviates: dose: 100.0 mg/kg/injection, schedule: Q01DX001 (ip), vehicle: saline.
Where [8] appears, read: dose: 200.0 mg/kg/injection, schedule: Q01DX001 (ip), vehicle: saline.
Setting [9] is: dose: 100.0 mg/kg/injection, schedule: Q01DX001 (ip), vehicle: Klucel (hydroxypropylcellulose) (HPC).
[10] abbreviates: dose: 100.0 mg/kg/injection, schedule: Q04DX002 (ip), vehicle: Klucel (hydroxypropylcellulose) (HPC).
The mark [11] stands for this setting: dose: 200.0 mg/kg/injection, schedule: Q01DX001 (ip), vehicle: Klucel (hydroxypropylcellulose) (HPC).
Setting [12] is: dose: 400.0 mg/kg/injection, schedule: Q01DX009 (ip), vehicle: Klucel (hydroxypropylcellulose) (HPC).
Setting [13] is: dose: 25.0 mg/kg/injection, schedule: Q04DX002 (ip), vehicle: Klucel (hydroxypropylcellulose) (HPC).
Setting [14] is: dose: 50.0 mg/kg/injection, schedule: Q04DX002 (ip), vehicle: Klucel (hydroxypropylcellulose) (HPC).

“And” between values parts separate entries of the source, which are not always exact repeats. Equal entries are not always repeated. Toxic doses and inconclusive results are not listed.

As to `CN(C)C(=S)[S][Sb]([S]C(=S)N(C)C)[c]1ccccc1`, the T/C (dose: 100.0 mg/kg/injection, schedule: Q01DX001 (ip), vehicle: steriod suspending solution) was 96 % of control and the T/C (dose: 200.0 mg/kg/injection, schedule: Q01DX001 (ip), vehicle: steriod suspending solution) was 96 % of control.

Regarding `C/C=C(\C)C(N)=Nc1ccc(Cl)c(Cl)c1`, the T/C was 106 % of control (dose: 55.0 mg/kg/injection, schedule: Q01DX Z (ip), vehicle: methylcellulose (MC)); 102 % of control (dose: 83.0 mg/kg/injection, schedule: Q01DX Z (ip), vehicle: methylcellulose (MC)); 102 % of control (dose: 125.0 mg/kg/injection, schedule: Q01DX Z (ip), vehicle: methylcellulose (MC)).

As to `COP(=S)(N/N=C/c1ccccn1)OC`, the T/C runs as follows: under setting [1], 106 % of control; (dose: 200.0 mg/kg/injection, schedule: Q04DX003 (ip), vehicle: saline with Tween-80) 97 % of control; (dose: 400.0 mg/kg/injection, schedule: Q04DX003 (ip), vehicle: saline with Tween-80) 108 % of control.

With `Cc1ccc(S(=O)(=O)N2CCCC2CO)cc1` (centres undefined), the T/C is 97 % of control (dose: 50.0 mg/kg/injection, schedule: Q01DX009 (ip), vehicle: Klucel (hydroxypropylcellulose) (HPC)); 101 % of control under setting [2]; 101 % of control under setting [3].

For the molecule `C=C1C=C(c2ccccc2)N(C(=O)c2ccccc2I)CCN1C(=O)c1ccccc1I`, the T/C by setting is: under setting [4], 114 % of control; under setting [5], 89 % of control; under setting [6], 94 % of control.

On to `O=P(O)(N(CCCl)CCCl)N1CCN(P(=O)(O)N(CCCl)CCCl)CC1`, for which the T/C runs as follows: (dose: 10.0 mg/kg/injection, schedule: Q01DX015 (ip), vehicle: saline) 110 % of control; (dose: 30.0 mg/kg/injection, schedule: Q01DX015 (ip), vehicle: saline) 119 % of control; under setting [7], 115 % of control; under setting [8], 113 % of control; (dose: 400.0 mg/kg/injection, schedule: Q01DX001 (ip), vehicle: saline) 124 % of control.

In the case of `Clc1ccc(-n2cnnn2)cc1`, the T/C was 98 % of control under setting [7] and 98 % of control under setting [8].

In the case of `CC(=O)Oc1ccc(Nc2c3ccccc3nc3ccccc23)cc1`, the T/C by setting is: (dose: 25.0 mg/kg/injection, schedule: Q04DX002 (ip), vehicle: saline with Tween-80) 106 % of control; (dose: 44.0 mg/kg/injection, schedule: Q04DX003 (ip), vehicle: saline with Tween-80) 116 % of control; (dose: 66.0 mg/kg/injection, schedule: Q04DX003 (ip), vehicle: saline with Tween-80) 119 % of control; (dose: 100.0 mg/kg/injection, schedule: Q04DX002 (ip), vehicle: saline with Tween-80) 181 % of control; under setting [1], 123 % of control; (dose: 150.0 mg/kg/injection, schedule: Q04DX003 (ip), vehicle: saline with Tween-80) 116 % of control.

For the molecule `CC(C)(C)C(=O)CN1C(=O)c2ccccc2C1=O`, the T/C is, setting by setting: under setting [9], 108 % of control; under setting [2], 96 % of control and 97 % of control; under setting [10], 101 % of control and 103 % of control; under setting [4], 101 % of control; under setting [11], 112 % of control; under setting [3], 96 % of control and 104 % of control. Moreover, the T/C by setting is: (dose: 200.0 mg/kg/injection, schedule: Q04DX002 (ip), vehicle: Klucel (hydroxypropylcellulose) (HPC)) 98 % of control and 103 % of control; under setting [5], 95 % of control; (dose: 400.0 mg/kg/injection, schedule: Q01DX001 (ip), vehicle: Klucel (hydroxypropylcellulose) (HPC)) 118 % of control; under setting [12], 97 % of control and 108 % of control; (dose: 400.0 mg/kg/injection, schedule: Q04DX002 (ip), vehicle: Klucel (hydroxypropylcellulose) (HPC)) 103 % of control and 109 % of control; under setting [6], 103 % of control.

Turning to `CCCCCCCS(=O)c1nc2ccccc2s1` (centres undefined), the T/C by setting is: (dose: 100.0 mg/kg/injection, schedule: Q04DX002 (ip), vehicle: other) 104 % of control; (dose: 200.0 mg/kg/injection, schedule: Q04DX002 (ip), vehicle: other) 91 % of control; (dose: 400.0 mg/kg/injection, schedule: Q04DX002 (ip), vehicle: other) 91 % of control.

On to `Cc1nc(Cl)c(Cl)[nH]1`, for which the T/C runs as follows: (dose: 100.0 mg/kg/injection, schedule: Q01DX009 (ip), vehicle: saline with Tween-80) 97 % of control; (dose: 200.0 mg/kg/injection, schedule: Q01DX009 (ip), vehicle: saline with Tween-80) 111 % of control.

As for `Clc1nc(Sc2ccc(Br)cc2)c(Cl)c(Sc2ccc(Br)cc2)n1`, the T/C was 95 % of control and 89 % of control (dose: 62.5 mg/kg/injection, schedule: Q01DX001 (ip), vehicle: Klucel (hydroxypropylcellulose) (HPC)); 94 % of control (dose: 125.0 mg/kg/injection, schedule: Q01DX001 (ip), vehicle: Klucel (hydroxypropylcellulose) (HPC)); 94 % of control and 98 % of control (dose: 250.0 mg/kg/injection, schedule: Q01DX001 (ip), vehicle: Klucel (hydroxypropylcellulose) (HPC)).

In the case of `NC(=O)N/N=C(/CBr)c1ccc(-c2ccccc2)cc1`, the T/C was 101 % of control (dose: 25.0 mg/kg/injection, schedule: Q04DX003 (ip), vehicle: saline); 95 % of control (dose: 50.0 mg/kg/injection, schedule: Q04DX003 (ip), vehicle: saline); 96 % of control under setting [7]; 91 % of control (dose: 100.0 mg/kg/injection, schedule: Q04DX003 (ip), vehicle: saline).

For the molecule `CC(C)OC(=O)Nc1ccc(-c2ccc(NC(=O)OC(C)C)cc2)cc1`, the T/C is 95 % of control under setting [2]; 91 % of control under setting [4]; 97 % of control under setting [3]; 91 % of control under setting [5]; 97 % of control under setting [12]; 98 % of control under setting [6].

As for `CCOC(=O)c1c[nH]c2ccc(N(CCCl)CCCl)cc12`, the T/C reads like this: (dose: 5.0 mg/kg/injection, schedule: Q01DX001 (ip), vehicle: carboxymethylcellulose (CMC)) 98 % of control; (dose: 10.0 mg/kg/injection, schedule: Q01DX001 (ip), vehicle: carboxymethylcellulose (CMC)) 104 % of control; (dose: 20.0 mg/kg/injection, schedule: Q01DX001 (oral), vehicle: carboxymethylcellulose (CMC)) 98 % of control; (dose: 40.0 mg/kg/injection, schedule: Q01DX001 (oral), vehicle: carboxymethylcellulose (CMC)) 103 % of control; (dose: 80.0 mg/kg/injection, schedule: Q01DX001 (oral), vehicle: carboxymethylcellulose (CMC)) 103 % of control; (dose: 160.0 mg/kg/injection, schedule: Q01DX001 (oral), vehicle: carboxymethylcellulose (CMC)) 107 % of control. Further, the T/C (dose: 320.0 mg/kg/injection, schedule: Q01DX001 (oral), vehicle: carboxymethylcellulose (CMC)) was 115 % of control.

On to `Cc1cc(O)ccc1C#N`, for which the T/C is, setting by setting: (dose: 100.0 mg/kg/injection, schedule: Q04DX002 (ip), vehicle: saline) 102 % of control; (dose: 200.0 mg/kg/injection, schedule: Q04DX002 (ip), vehicle: saline) 102 % of control; (dose: 400.0 mg/kg/injection, schedule: Q04DX002 (ip), vehicle: saline) 104 % of control.

For the molecule `COc1ccc(O)c2c(C(=O)c3ccccc3)c[nH]c12`, the T/C under setting [13] was 87 % of control, the T/C under setting [14] is 95 % of control and the T/C under setting [10] was 95 % of control.

As for `COc1cc2c(cc1OC)N(C(C)=O)Cc1cccn1C2`, the T/C runs as follows: (dose: 12.5 mg/kg/injection, schedule: Q04DX002 (ip), vehicle: Klucel (hydroxypropylcellulose) (HPC)) 94 % of control; under setting [13], 94 % of control; under setting [14], 94 % of control.

For `COC(=O)C1C2CCC1(C)C(O)C2` (centres undefined), the T/C by setting is: (dose: 75.0 mg/kg/injection, schedule: Q01DX009 (ip), vehicle: saline with Tween-80) 96 % of control; (dose: 150.0 mg/kg/injection, schedule: Q01DX009 (ip), vehicle: saline with Tween-80) 107 % of control; (dose: 300.0 mg/kg/injection, schedule: Q01DX009 (ip), vehicle: saline with Tween-80) 100 % of control.

As for `Cc1ccc(N=Cc2ccccc2O)cc1`, the T/C (dose: 50.0 mg/kg/injection, schedule: Q01DX001 (ip), vehicle: Klucel (hydroxypropylcellulose) (HPC)) was 93 % of control; the T/C under setting [9] was 90 % of control; the T/C under setting [11] is 93 % of control.
